Experimental data reported in ChEMBL document CHEMBL1156805, “Development of (S)-N6-(2-(4-(isoquinolin-1-yl)piperazin-1-yl)ethyl)-N6-propyl-4,5,6,7-tetrahydrobenzo[d]-thiazole-2,6-diamine and its analogue as a D3 receptor preferring agonist: potent in vivo activity in Parkinson's disease animal models” (J Med Chem, 2010).
One block for each molecule: values may come before it.

Key:
D(3) dopamine receptor [1] = biological target: T1, D(3) dopamine receptor (Homo sapiens, UniProt P35462); assay: biochemical
T1 sequence (P35462 whole entry): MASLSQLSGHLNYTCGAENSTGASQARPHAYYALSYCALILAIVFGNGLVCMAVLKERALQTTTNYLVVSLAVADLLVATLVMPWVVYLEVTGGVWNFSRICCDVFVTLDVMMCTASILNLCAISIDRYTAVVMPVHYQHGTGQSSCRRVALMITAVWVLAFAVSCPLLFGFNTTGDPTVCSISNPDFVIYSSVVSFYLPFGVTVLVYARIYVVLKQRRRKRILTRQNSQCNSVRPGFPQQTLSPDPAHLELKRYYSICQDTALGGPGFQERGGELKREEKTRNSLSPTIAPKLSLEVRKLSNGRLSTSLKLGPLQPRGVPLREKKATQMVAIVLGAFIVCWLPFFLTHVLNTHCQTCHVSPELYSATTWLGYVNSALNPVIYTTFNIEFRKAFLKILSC

D(2) dopamine receptor [2] = biological target: T2, D(2) dopamine receptor (Homo sapiens, UniProt P14416); assay: biochemical
T2 sequence (P14416 whole entry): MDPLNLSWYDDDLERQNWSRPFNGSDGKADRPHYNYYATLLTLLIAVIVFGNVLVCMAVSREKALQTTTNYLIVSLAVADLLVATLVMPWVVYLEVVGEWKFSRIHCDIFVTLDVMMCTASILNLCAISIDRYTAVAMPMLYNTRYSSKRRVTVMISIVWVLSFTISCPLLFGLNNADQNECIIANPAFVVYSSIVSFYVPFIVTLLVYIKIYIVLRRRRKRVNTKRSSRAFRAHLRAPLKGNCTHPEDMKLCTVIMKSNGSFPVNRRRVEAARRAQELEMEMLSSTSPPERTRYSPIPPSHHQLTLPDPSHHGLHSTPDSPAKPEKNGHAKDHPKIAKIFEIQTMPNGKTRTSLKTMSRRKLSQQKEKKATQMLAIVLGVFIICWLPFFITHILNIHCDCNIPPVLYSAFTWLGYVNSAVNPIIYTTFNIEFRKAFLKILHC

D(2) dopamine receptor [3] = biological target: D(2) dopamine receptor (Rattus norvegicus, UniProt P61169); assay: biochemical
Sequence of D(2) dopamine receptor (Rattus norvegicus, UniProt P61169) (P61169 whole entry): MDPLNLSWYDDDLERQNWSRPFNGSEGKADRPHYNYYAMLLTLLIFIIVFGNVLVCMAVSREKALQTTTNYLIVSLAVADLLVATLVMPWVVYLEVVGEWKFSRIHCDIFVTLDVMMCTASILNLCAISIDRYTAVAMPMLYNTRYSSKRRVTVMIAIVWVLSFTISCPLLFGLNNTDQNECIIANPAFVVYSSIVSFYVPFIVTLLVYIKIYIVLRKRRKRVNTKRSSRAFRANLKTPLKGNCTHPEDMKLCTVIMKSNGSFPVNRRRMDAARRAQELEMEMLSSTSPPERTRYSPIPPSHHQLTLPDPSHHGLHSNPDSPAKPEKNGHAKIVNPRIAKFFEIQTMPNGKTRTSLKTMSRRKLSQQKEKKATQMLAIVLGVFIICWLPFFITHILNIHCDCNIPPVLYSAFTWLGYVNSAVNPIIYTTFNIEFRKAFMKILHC

D(2) dopamine receptor [4] = biological target: T2, D(2) dopamine receptor; assay: Agonist activity at human dopamine D2L receptor expressed in CHO cells assessed as stimulation of [35S]GTPgamma binding relative to 1 mM dopamine; type: functional, cell-based
[5] = tested on: Radical scavenging activity
D(3) dopamine receptor [6] = biological target: T3, D(3) dopamine receptor (Rattus norvegicus, UniProt P19020); assay: biochemical
T3 sequence (P19020 whole entry): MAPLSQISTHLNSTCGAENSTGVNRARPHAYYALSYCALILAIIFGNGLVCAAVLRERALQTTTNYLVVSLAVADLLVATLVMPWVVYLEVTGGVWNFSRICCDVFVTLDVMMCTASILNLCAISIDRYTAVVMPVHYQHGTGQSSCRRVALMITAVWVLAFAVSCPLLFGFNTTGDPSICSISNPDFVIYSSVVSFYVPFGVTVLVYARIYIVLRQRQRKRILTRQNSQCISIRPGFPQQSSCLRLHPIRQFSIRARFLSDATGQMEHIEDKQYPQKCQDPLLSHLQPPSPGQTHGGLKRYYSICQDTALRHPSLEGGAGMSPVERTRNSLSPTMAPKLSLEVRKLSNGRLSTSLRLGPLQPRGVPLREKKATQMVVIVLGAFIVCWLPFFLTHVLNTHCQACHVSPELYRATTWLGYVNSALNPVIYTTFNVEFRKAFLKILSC

D(3) dopamine receptor [7] = biological target: T3, D(3) dopamine receptor
D(2) dopamine receptor [8] = biological target: T2, D(2) dopamine receptor
D(3) dopamine receptor [9] = biological target: T1, D(3) dopamine receptor

SMILES: CCCN(CCN1CCN(c2ccnc3ccccc23)CC1)[C@H]1CCc2nc(N)sc2C1
EC50 (D(3) dopamine receptor [1]): 0.493 nM | EC50 (D(2) dopamine receptor [2]): 77.2 nM | Ki (D(2) dopamine receptor [3]): 109 nM | Emax (D(2) dopamine receptor [4]): 118%

SMILES: CCCN(CCN1CCN(c2cccc3ncccc23)CC1)[C@H]1CCc2nc(N)sc2C1
IC50 [5]: 39700 nM | EC50 (D(3) dopamine receptor [1]): 0.528 nM | EC50 (D(2) dopamine receptor [2]): 13.5 nM | Ki (D(2) dopamine receptor [3]): 57.7 nM | Emax (D(2) dopamine receptor [4]): 104%

Ki (D(2) dopamine receptor [3]): 7.08 nM | Ki (D(3) dopamine receptor [6]): 2.65 nM
SMILES: CCCN(CCN1CCN(c2ccnc3ccccc23)CC1)C1CCc2ccc(O)cc2C1 (stereo not given)

SMILES: CCCN(CCN1CCN(c2ccc3ccccc3c2)CC1)C1CCc2ccc(O)cc2C1 (stereo not given)
Ki (D(2) dopamine receptor [3]): 8.85 nM

SMILES: CCCN(CCN1CCN(C(=O)c2cc3ccccc3[nH]2)CC1)[C@H]1CCc2c(O)cccc2C1
Ki (D(3) dopamine receptor [7]): 0.57 nM

SMILES: CCCN(CCC)CCc1cccc2c1CC(=O)N2 [ROPINIROLE]
EC50 (D(2) dopamine receptor [2]): 304 nM

SMILES: CCCN(CCN1CCN(c2ccc(-c3ccccc3)cc2)CC1)[C@H]1CCc2nc(N)sc2C1
EC50 (D(2) dopamine receptor [8]): 19.9 nM | EC50 (D(3) dopamine receptor [9]): 0.085 nM

SMILES: CCCN(CCN1CCN(c2nccc3ccccc23)CC1)[C@H]1CCc2nc(N)sc2C1
IC50 [5]: 45700 nM | EC50 (D(3) dopamine receptor [1]): 0.52 nM | EC50 (D(2) dopamine receptor [8]): 116 nM | Ki (D(2) dopamine receptor [3]): 269 nM | Ki (D(3) dopamine receptor [6]): 2.23 nM

SMILES: CCCN(CCN1CCN(c2nccc3ccccc23)CC1)C1CCc2ccc(O)cc2C1 (stereo not given)
Ki (D(2) dopamine receptor [3]): 21.7 nM

SMILES: CCCN(CCN1CCN(c2ccc(-c3ccncc3)cc2)CC1)[C@H]1CCc2nc(N)sc2C1
Ki (D(2) dopamine receptor [3]): 270 nM

SMILES: CCCN(CCN1CCN(c2cccc3ccccc23)CC1)C1CCc2ccc(O)cc2C1 (stereo not given)
Ki (D(2) dopamine receptor [3]): 13.5 nM

SMILES: CCCN(CCN1CCN(c2cccc3ncccc23)CC1)C1CCc2ccc(O)cc2C1 (stereo not given)
Ki (D(2) dopamine receptor [3]): 5.22 nM
